Results as given in BigSolDB 2.1.

CCOC(=O)Cc1c(C(=O)OCC)sc(N(CC(=O)OCC)CC(=O)OCC)c1C#N
solubility (mole fraction)
Settings	in isopropanol	in methanol	in n-butanol	in n-propanol	in toluene
283.15 K	0.000243	0.0012	0.000391	0.000617	0.0122
285.65 K	0.000308	0.00149	0.000489	0.000762	0.014
288.15 K	0.000386	0.0018	0.000608	0.000953	0.0162
290.65 K	0.000478	0.0022	0.000753	0.00118	0.0187
293.15 K	0.000592	0.00265	0.00094	0.00146	0.0216
295.65 K	0.000736	0.00326	0.00115	0.0018	0.0249
298.15 K	0.00091	0.00391	0.0014	0.00219	0.0286
300.65 K	0.00111	0.00464	0.00173	0.00266	0.0328
303.15 K	0.00135	0.00556	0.00215	0.00327	0.0379
305.65 K	0.00162	0.00659	0.00259	0.00403	0.0434
308.15 K	0.00197	0.00781	0.00316	0.00492	0.0498
310.65 K	0.00236	0.00925	0.0039	0.006	0.0567
313.15 K	0.00286	0.0109	0.0047	0.00722	0.0647
315.65 K	0.00345	0.0128	0.00577	0.00868	0.0737
318.15 K	0.00413	0.015	0.00696	0.0104	0.0835
320.65 K	0.00494	0.0174	0.00838	0.0126	0.0946
323.15 K	0.00588	0.0198	0.0102	0.015	0.107
